Results taken from patent US6875761B2 (Eisai Co., Ltd., priority 1997, dated 2005).
Counter-ions that a name gives are not always drawn.

Legend:
serotonin 2 receptor = molecular target: T1, serotonin 2 receptor (Rattus norvegicus, UniProt P14842); test: Binding test on [3H] ketanserin, cerebral cortex receptor fraction; set-up: species or system SD rats; settings: 0.3 nM [3H] ketanserin, 37° C. 15 min, read-out: 5HT2
T1 construct: To the receptor fraction of the cerebral cortex were added a test compound and 0.3 nM of [^3H] ketanserin; from tissue; host or cells: rat cerebral cortex membrane fraction

serotonin 1A receptor = molecular target: T2, serotonin 1A receptor (Rattus norvegicus, UniProt P19327); test: Binding test on [3H] 8-hydroxy-dipropylaminotetralin, hippocampus receptor fraction; set-up: species or system SD rats; settings: rat hippocampus receptor fraction, 0.5 nM [3H] 8-OH-DPAT, room temperature 30 min; read-out: 5HT1
T2 construct: To the receptor fraction of the hippocampus were added a test compound and 0.5 nM of [^3H]; 8-hydroxy-dipropylaminotetralin; from tissue; host or cells: rat hippocampus membrane fraction
T2 sequence (P19327 1-422): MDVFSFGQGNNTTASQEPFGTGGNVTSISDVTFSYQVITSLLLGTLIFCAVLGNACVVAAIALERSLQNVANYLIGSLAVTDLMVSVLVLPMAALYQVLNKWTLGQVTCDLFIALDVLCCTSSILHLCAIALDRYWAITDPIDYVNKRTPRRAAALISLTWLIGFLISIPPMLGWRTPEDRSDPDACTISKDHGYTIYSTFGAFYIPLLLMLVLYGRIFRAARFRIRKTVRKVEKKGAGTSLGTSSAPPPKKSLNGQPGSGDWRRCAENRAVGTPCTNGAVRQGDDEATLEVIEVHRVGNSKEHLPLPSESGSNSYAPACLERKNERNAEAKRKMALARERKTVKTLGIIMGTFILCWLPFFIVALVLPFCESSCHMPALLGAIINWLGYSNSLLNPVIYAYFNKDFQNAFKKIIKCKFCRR

T1 sequence (P14842 whole entry): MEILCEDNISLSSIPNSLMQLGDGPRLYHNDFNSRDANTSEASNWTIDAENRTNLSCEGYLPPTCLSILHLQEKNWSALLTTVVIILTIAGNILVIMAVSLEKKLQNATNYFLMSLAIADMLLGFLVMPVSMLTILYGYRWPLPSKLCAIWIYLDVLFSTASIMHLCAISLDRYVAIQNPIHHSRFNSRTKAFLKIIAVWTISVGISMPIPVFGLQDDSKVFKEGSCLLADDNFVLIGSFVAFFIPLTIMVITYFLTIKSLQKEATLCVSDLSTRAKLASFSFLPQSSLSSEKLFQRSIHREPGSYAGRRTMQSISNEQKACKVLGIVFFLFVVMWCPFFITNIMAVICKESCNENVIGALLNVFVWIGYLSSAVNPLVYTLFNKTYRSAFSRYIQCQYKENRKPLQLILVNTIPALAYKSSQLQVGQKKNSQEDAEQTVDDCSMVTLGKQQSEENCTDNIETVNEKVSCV

Ki (serotonin 2 receptor) | Ki (serotonin 1A receptor) | SMILES
0.89 nM | 6.42 nM | CCN1CCN(c2nc(-c3ccc(N4CCOCC4)nc3)cc3ccsc23)CC1 [Example 263, 5-[2-(4-morpholinyl)pyridin-5-yl]-7-(4-ethylpiperazin-1-yl)thieno[2,3-c]pyridine Hydrochloride]
0.8 nM | 10.7 nM | CCN1CCN(c2nc(-c3ccc(N4CCSCC4)nc3)cc3ccccc23)CC1 [Example 150, 1-(4-ethylpiperazin-1-yl)-3-[2-(thiomorpholin-4-yl)pyridin-5-yl]isoquinoline trihydrochloride]
6.4 nM | 15.7 nM | CCN1CCN(c2nc(-c3ccc(CCO)cc3)cc3ccccc23)CC1 [Example 351, 1-(4-ethylpiperazin-1-yl)-3-[4-(2-hydroxyethyl)phenyl]isoquinoline dihydrochloride]
5.3 nM | 11.7 nM | CCCC(=O)NCc1ccc(-c2cc3ccccc3c(N3CCN(CC)CC3)n2)cc1 [Example 86, 3-(4-Propylcarbonylaminomethylphenyl)-1-(4-ethylpiperazin-1-yl)isoquinoline Hydrochloride]
17.4 nM | 2.2 nM | CCN1CCN(c2nc(-c3ccc(CCCOC(C)C)nc3)cc3ccccc23)CC1 [Example 143, 1-(1-Ethylpiperazin-4-yl)-3-[2-[3-(2-Propoxy)Propyl]Pyridin-5-yl]Isoquinoline Oxalate]
25.4 nM | 3 nM | CCC(O)c1ncc(-c2cc3ccccc3c(N3CCN(CC)CC3)n2)s1 (centres unmarked) [Example 170, 1-(1-ethylpiperazin-4-yl)-3-[(1-hydroxypropyl)thiazol-5-yl]isoquinoline dihydrochloride]
6.2 nM | 3.5 nM | CCN1CCN(c2nc(-c3ccc(N4CCN(C(C)=O)CC4)nc3)cc3ccccc23)CC1 [Example 99, 3-[2-(4-Acetylpiperazin-1-yl)pyridin-5-yl]-1-(4-ethylpiperazin-1-yl)isoquinoline Trihydrochloride]
10.8 nM | 0.2 nM | CCN1CCN(c2nc(-c3ccc(CS(=O)(=O)N(CC)CC)cc3)cc3ccccc23)CC1 [Example 82, 3-[4-(N,N-diethylamino)sulfonylmethylphenyl]-1-(4-ethylpiperazin-1-yl)isoquinoline Hydrochloride]
2.1 nM | 23.7 nM | CCN1CCN(c2nc(-c3ccc([C@@H]4C[C@@H](O)CCO4)cc3)cc3ccccc23)CC1 (relative stereo) [Example 402, 1-(4-Ethylpiperazin-1-yl)-3-[4-(trans-4-Hydroxytetrahydropyran-2-yl)Phenyl]Isoquinoline Dihydrochloride]
93.1 nM | 75.4 nM | CCN1CCN(c2nc(-c3ccc(C(O)C4CCCC4)cc3)cc3ccsc23)CC1 (centres unmarked) [Example 458, 7-(4-ethylpiperazin-1-yl)-5-[4-(cyclopentylhydroxymethyl)phenyl]thieno[2,3-c]pyridine dihydrochloride]
7.04 nM | 19.6 nM | CCCCNC(=O)c1ccc(-c2cc3ccsc3c(N3CCN(CC)CC3)n2)cc1 [Example 452, 7-(4-ethylpiperazin-1-yl)-5-[4-(N-butylcarbamoyl)phenyl]thieno[2,3-c]pyridine dihydrochloride]
101 nM | 109 nM | CCN1CCN(c2nc(C(O)c3ccc(OC)cc3)cc3ccccc23)CC1 (stereo not drawn) [Example 104, 3-[α-Hydroxy-(4-methoxybenzyl)]-1-(4-ethylpiperazin-1-yl)isoquinoline Oxalate]
15.9 nM | 10 nM | CCN1CCN(c2nc(C#CCCc3ccccc3)cc3ccccc23)CC1 [Example 182, 1-(1-Ethylpiperazin-4-Yl)-3-[4-Phenyl-1-Butynyl)Isoquinoline Dihydrochloride]
122 nM | 30.9 nM | CCN1CCN(c2nc(C#CC(=O)c3ccccc3)cc3ccccc23)CC1 [Example 184, 1-(1-Ethylpiperazin-4-Yl)-3-Benzoylethynylisoquinoline Oxalate]
1.96 nM | 22.2 nM | CCN1CCN(c2nc(-c3ccc(CCC(C)O)cc3)cc3sccc23)CC1 (centres unmarked) [Example 285, 4-(1-ethylpiperazin-4-yl)-6-[4-(3-hydroxybutyl)phenyl]thieno[3,2-c]pyridine hydrochloride]
4.26 nM | 70.7 nM | CCN1CCN(c2nc(/C=C/c3ccccc3F)cc3ccccc23)CC1 [Example 197, 1-(1-Ethylpiperazin-4-Yl)-3-[Trans-2-(2-Fluorophenyl)Ethenyl]isoquinoline Oxalate]
5.7 nM | 35.3 nM | CCN1CCN(c2nc(-c3ccc(OC)c(CCCCO)c3)cc3ccccc23)CC1 [Example 35, 3-[3-(4-hydroxybutyl)-4-methoxyphenyl]-1-(4-ethylpiperazin-1-yl)isoquinoline hydrochloride]
60.5 nM | 64.9 nM | CCN1CCN(c2nc(-c3ccc(OCCCO)cc3)cc3ccsc23)CC1 [Example 434, 7-(4-ethylpiperazin-1-yl)-5-[4-(3-hydroxypropoxy)phenyl]thieno[2,3-c]pyridine dihydrochloride]
20.3 nM | 60.1 nM | CCN1CCN(c2nc(-c3cc(OC)ccn3)cc3ccccc23)CC1 [Example 335, 1-(4-ethylpiperazin-1-yl)-3-(4-methoxypyridin-2-yl)isoquinoline dihydrochloride]
5.98 nM | 75.4 nM | CN1CCN(c2nc(-c3ccc(OCCO)cc3)cc3ccsc23)CC1 [Example 253, 5-[4-(2-hydroxyethoxy)phenyl]-7-(4-methylpiperazin-1-yl)thieno[2,3-c]pyridine Hydrochloride]
19.5 nM | 9.22 nM | CCN1CCN(c2nc(-c3ccc(C(F)CCO)cc3)cc3ccsc23)CC1 (centres unmarked) [Example 256, 7-(1-ethylpiperazin-4-yl)-5-[4-(3-hydroxy-1-fluoropropyl)phenyl]thieno[2,3-c]pyridine Dihydrochloride]
74.9 nM | 71 nM | CCN1CCN(c2nc(-c3ccc(C(F)(F)F)cc3)cc3ccccc23)CC1 [Example 4, 1-(4-ethylpiperazin-1-yl)-3-(4-trifluoromethylphenyl)isoquinoline Dihydrochloride]
18.8 nM | 62.9 nM | CCN1CCN(c2nc(-c3ccc(O[C@@H](C)CO)cc3)cc3ccsc23)CC1 [Example 438, 7-(4-ethylpiperazin-1-yl)-5-[4-(1-methyl-2-hydroxyethoxy)phenyl]thieno[2,3-c]pyridine dihydrochloride]
45.4 nM | 22.2 nM | CCN1CCN(c2nc(-c3ccc(C(=O)NC4CCCC4)cc3)cc3ccsc23)CC1 [Example 453, 7-(4-ethylpiperazin-1-yl)-5-[4-(N-cyclopentylcarbamoyl)phenyl]thieno[2,3-c]pyridine dihydrochloride]
1.4 nM | 47.8 nM | CCN1CCN(c2nc(-c3ccc(C#CCO)cc3)cc3sccc23)CC1 [Example 464, 4-(4-ethylpiperazin-1-yl)-6-[4-(3-hydroxy-1-propynyl)phenyl]thieno[3,2-c]pyridine pyridine]

SMILES | Ki (serotonin 2 receptor) | Ki (serotonin 1A receptor)
CCN1CCN(c2nc(-c3ccc(CCCCO)nc3)cc3ccccc23)CC1 [Example 137, 1-(1-Ethylpiperazin-4-yl)-3-[2-(4-Hydroxybutyl)Pyridin-5-yl]Isoquinoline] | 32.5 nM | 7.2 nM
CCN1CCN(c2nc(/C=C/c3ccc(OCCO)cc3)cc3ccoc23)CC1 [Example 307] | 11.5 nM | 7.7 nM
CCN1CCN(c2nc(-c3ccc(C(O)C4CCCCC4)cc3)cc3ccccc23)CC1 (centres unmarked) [Example 409, 1-(4-ethylpiperazin-1-yl)-3-[4-(cyclohexylhydroxymethyl)phenyl]isoquinoline] | 9.7 nM | 16.4 nM
CCN1CCN(c2nc(-c3ccc(OCCO)c(Cl)c3)cc3ccsc23)CC1 [Example 437, 7-(4-ethylpiperazin-1-yl)-5-[3-chloro-4-(2-hydroxyethoxy)phenyl]thieno[2,3-c]pyridine] | 18.1 nM | 30.5 nM
CCCC(=O)Nc1ncc(-c2cc3ccccc3c(N3CCN(CC)CC3)n2)cn1 [Example 174, 3-(2-Propylcarbonylaminopyrimidin-5-Yl)-1-(4-Ethylpiperazin-1-Yl)Isoquinoline Hydrochlroide] | 7.3 nM | 29.1 nM
CCN1CCN(c2nc(CC(O)c3ccccc3)cc3ccccc23)CC1 (centres unmarked) [Example 420, 1-(4-ethylpiperazin-1-yl)-3-(2-hydroxy-2-phenylethyl)isoquinoline] | 22.4 nM | 117 nM
CCN1CCN(c2nc(C(C)=Cc3ccccc3)cc3ccccc23)CC1 [Example 192, 1-(1-Ethylpiperazin-4-Yl)-3-(Cis-1-Methyl-2-Phenylethenyl) Isoquinoline Oxalate] | 7.85 nM | 66.7 nM
CN1CCN(c2nc(-c3ccc(OCCO)cc3)cc3ccccc23)CC1 [Example 3, 1-(1-methylpiperazin-4-yl)-3-[4-(2-hydroxyethoxy)phenyl]isoquinoline] | 3.8 nM | 65 nM
CCN1CCN(c2nc(-c3ccc(CCCF)cn3)cc3ccccc23)CC1 [Example 132, 1-(1-Ethylpiperazin-4-yl)-3-[5-(3-Fluoropropyl)Pyridin-2-yl)Isoquinoline] | 23.4 nM | 1.5 nM
